Test results reported in patent US11771709B2, “ALK protein degradation agent and anti-tumor application thereof” (ShanghaiTech University, priority 2017, dated 2023).

Legend:
Type in all cases: cell-based
[1] = system: SR (NPM-ALK) cells; experiment: Growth inhibition IC50 in ALCL SR cells (CCK8/WST, 72 hours); conditions: 72 h, SR cells, WST; Brigatinib-based PROTAD molecules (Table 3)
Procedure: SR (NPM-ALK) and NCI-H2228 (EML4-ALK, V3) cells were purchased from ATCC. […] All Cells were cultured in RPMI1640 medium with 10% FBS and Penicillin-Streptomycin in 37° C. incubator with 5% CO2.
Cells were seeded at specific density in 96 well plates one day before treatment. […] Viable cells were measured via CCK8 reagent and IC50s were calculated via Prism Graphad. Experiments were repeated at least three times.

[2] = molecular target: T1, ALK protein in SR (NPM-ALK) cells (Homo sapiens, UniProt Q9UM73); experiment: Western blot of ALK protein level (degradation, DC50), ALK phosphorylation and downstream signaling in SR cells; conditions: ALK protein degradation in SR cells
T1 construct: NPM (nucleophosmin, NPM1, P06748) fusion partner; host or cells: SR (ALCL) cells; the other entry of the earlier key: NPM1 (P06748, Nucleophosmin)
T1 sequence (Q9UM73 with tags, fused parts or gaps): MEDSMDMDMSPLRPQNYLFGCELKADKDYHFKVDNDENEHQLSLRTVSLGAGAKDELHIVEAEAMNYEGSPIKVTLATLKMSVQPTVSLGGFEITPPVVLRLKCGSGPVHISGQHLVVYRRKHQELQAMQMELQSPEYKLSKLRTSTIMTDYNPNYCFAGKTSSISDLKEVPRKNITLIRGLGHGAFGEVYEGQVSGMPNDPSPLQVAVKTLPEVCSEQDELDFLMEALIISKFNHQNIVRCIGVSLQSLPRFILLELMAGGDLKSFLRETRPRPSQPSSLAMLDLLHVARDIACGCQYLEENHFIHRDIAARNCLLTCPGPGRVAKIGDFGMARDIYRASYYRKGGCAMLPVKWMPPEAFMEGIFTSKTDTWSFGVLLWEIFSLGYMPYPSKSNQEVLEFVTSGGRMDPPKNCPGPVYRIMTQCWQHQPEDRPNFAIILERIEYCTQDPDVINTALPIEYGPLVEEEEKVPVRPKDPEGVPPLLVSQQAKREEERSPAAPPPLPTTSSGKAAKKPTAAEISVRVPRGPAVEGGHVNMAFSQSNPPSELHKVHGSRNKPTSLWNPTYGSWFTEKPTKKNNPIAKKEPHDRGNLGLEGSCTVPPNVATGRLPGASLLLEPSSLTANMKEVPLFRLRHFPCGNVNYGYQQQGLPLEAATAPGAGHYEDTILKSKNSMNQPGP
Procedure: Cancer cells were seeded in 1 ml RPMI1640 medium in 24-well plate at the density of 3×10^5 or 1.5×10^5 cells/ml. […] Then cells were washed twice with PBS and lyzed in RIPA lysis buffer with Halt Proteinase and Phosphotase inhibitor. Equal amount of proteins were loaded to run SDS-PAGE gels after denature. The gels were blotted to PVDF membrane. After incubating with first and secondary antibodies, the images were developed using SuperSignal West Pico Chemiluminescent Substrate.
DC50 (concentration required to degrade protein by half) were calculated based on the intensity from western blot, and data were analyzed via Prism GraphPad with non-linear regression.

[3] = molecular target: T2, ALK protein in H3122 (EML4-ALK) cells (Homo sapiens, UniProt Q9UM73); experiment: Western blot of ALK protein level (degradation, DC50), ALK phosphorylation and downstream signaling in H3122 cells; conditions: ALK protein degradation in H3122 cells
T2 construct: EML4 (Echinoderm microtubule-associated protein-like 4, Q9HC35) fusion partner, variant 1; host or cells: NCI-H3122 lung adenocarcinoma cells; the other entry of the earlier key: EML4 (Q9HC35, Echinoderm microtubule-associated protein-like 4)
T2 sequence (Q9UM73 with tags, fused parts or gaps): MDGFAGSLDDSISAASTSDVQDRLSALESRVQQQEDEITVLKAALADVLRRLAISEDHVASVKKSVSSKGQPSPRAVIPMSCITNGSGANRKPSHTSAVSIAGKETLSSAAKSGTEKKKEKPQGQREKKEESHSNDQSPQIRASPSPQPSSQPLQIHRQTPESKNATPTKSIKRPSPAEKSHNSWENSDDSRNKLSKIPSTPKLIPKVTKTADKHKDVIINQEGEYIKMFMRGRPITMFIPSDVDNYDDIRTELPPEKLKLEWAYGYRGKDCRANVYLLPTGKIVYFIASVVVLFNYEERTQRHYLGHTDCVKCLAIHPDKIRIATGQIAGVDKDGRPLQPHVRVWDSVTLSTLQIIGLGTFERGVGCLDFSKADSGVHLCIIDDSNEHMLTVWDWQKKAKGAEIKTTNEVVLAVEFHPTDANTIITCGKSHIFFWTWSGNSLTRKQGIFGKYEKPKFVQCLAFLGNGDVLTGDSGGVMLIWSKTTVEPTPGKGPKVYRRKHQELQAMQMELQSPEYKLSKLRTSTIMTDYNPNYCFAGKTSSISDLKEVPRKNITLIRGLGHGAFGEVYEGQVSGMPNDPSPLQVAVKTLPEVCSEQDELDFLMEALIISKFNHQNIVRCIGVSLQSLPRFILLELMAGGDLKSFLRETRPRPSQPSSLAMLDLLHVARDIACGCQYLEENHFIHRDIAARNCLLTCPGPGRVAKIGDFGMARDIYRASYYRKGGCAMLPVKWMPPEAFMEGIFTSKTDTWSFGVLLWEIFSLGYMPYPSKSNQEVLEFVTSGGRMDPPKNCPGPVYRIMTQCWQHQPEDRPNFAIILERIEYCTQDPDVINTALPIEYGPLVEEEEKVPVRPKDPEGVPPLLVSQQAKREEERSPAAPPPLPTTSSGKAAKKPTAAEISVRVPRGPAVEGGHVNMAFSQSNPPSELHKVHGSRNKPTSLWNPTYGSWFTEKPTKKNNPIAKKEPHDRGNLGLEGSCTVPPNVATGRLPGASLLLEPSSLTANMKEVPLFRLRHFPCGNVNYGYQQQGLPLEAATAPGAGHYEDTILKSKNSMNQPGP

| Structure (SMILES) | IC50 [1] [nM] | DC50 [2] [nM] | DC50 [3] [nM] | DC50 (nM) in SR [2] | DC50 (nM)) in H3122 [3] |
| --- | --- | --- | --- | --- | --- |
| COc1cc(N2CCC(N3CCN(C(=O)COCCOCC(=O)N[C@H](C(=O)N4C[C@H](O)C[C@H]4C(=O)NCc4ccc(-c5scnc5C)cc4)C(C)(C)C)CC3)CC2)ccc1Nc1ncc(Cl)c(Nc2ccccc2P(C)(C)=O)n1 [SIAIS164041, (2S,4R)-1-((S)-2-(2-(2-(2-(4-(1-(4-((5-chloro-4-((2-(dimethylphosphoryl)phenyl)amino)pyrimidin-2-yl)amino)-3-methoxyphenyl)piperidin-4-yl)piperazin-1-yl)-2-oxoethoxy)ethoxy)acetamido)-3,3-dimethylbutanoyl)-4-hydroxy-N-(4-(4-methylthiazol-5-yl)benzyl)pyrrolidine-2-carboxamide] | 42.7 ± 29.4 | 10 to 50 | 10 to 500 |  |  |
| COc1cc(N2CCC(NC(=O)CCC(=O)N[C@H](C(=O)N3C[C@H](O)C[C@H]3C(=O)NCc3ccc(-c4scnc4C)cc3)C(C)(C)C)CC2)ccc1Nc1ncc(Cl)c(Nc2ccccc2P(C)(C)=O)n1 [SIAIS164143, N1-(1-(4-((5-chloro-4-((2-(dimethylphosphoryl)phenyl)amino)pyrimidin-2-yl)amino)-3-methoxyphenyl)piperidin-4-yl)-N4-((S)-1-((2S,4R)-4-hydroxy-2-((4-(4-methylthiazol-5-yl)benzyl)carbamoyl)pyrrolidin-1-yl)-3,3-dimethyl-1-oxobutan-2-yl) succinamide] | 11.7 ± 4.2 | 1 to 10 | 50 to 100 |  |  |
| COc1cc(N2CCC(N)CC2)ccc1Nc1ncc(Cl)c(Nc2ccccc2P(C)(C)=O)n1 [Brigatinib Analogue B(SIAIS151101), (2-((2-((4-(4-aminopiperidin-1-yl)-2-methoxyphenyl)amino)-5-chloropyrimidin-4-yl)amino)phenyl)dimethylphosphine oxide] | 1.7 ± 1.4 |  |  | Not degrade | Not degrade |
| COc1cc(N2CCC(NC(=O)CCCCC(=O)N[C@H](C(=O)N3C[C@H](O)C[C@H]3C(=O)NCc3ccc(-c4scnc4C)cc3)C(C)(C)C)CC2)ccc1Nc1ncc(Cl)c(Nc2ccccc2P(C)(C)=O)n1 [SIAIS164145, N1-(1-(4-((5-chloro-4-((2-(dimethylphosphoryl)phenyl)amino)pyrimidin-2-yl)amino)-3-methoxyphenyl)piperidin-4-yl)-N6-((S)-1-((2S,4R)-4-hydroxy-2-((4-(4-methylthiazol-5-yl)benzyl)carbamoyl)pyrrolidin-1-yl)-3,3-dimethyl-1-oxobutan-2-yl)adipamide] | 10.3 ± 6.3 | 1 to 10 | 50 to 100 |  |  |
| COc1cc(N2CCC(N3CCN(C(=O)CCC(=O)NCCNc4cccc5c4C(=O)N(C4CCC(=O)NC4=O)C5=O)CC3)CC2)ccc1Nc1ncc(Cl)c(Nc2ccccc2P(C)(C)=O)n1 (stereo not drawn) [SIAIS164152, 4-(4-(1-(4-((5-chloro-4-((2-(dimethylphosphoryl)phenyl)amino)pyrimidin-2-yl)amino)-3-methoxyphenyl)piperidin-4-yl)piperazin-1-yl)-N-(2-((2-(2,6-dioxopiperidin-3-yl)-1,3-dioxoisoindolin-4-yl)amino)ethyl)-4-oxobutanamide] | 7.9 ± 3.5 | 0.5 to 10 | 10 to 50 |  |  |
| COc1cc(N2CCC(N3CCN(C(=O)CCOCCOCCC(=O)N[C@H](C(=O)N4C[C@H](O)C[C@H]4C(=O)NCc4ccc(-c5scnc5C)cc4)C(C)(C)C)CC3)CC2)ccc1Nc1ncc(Cl)c(Nc2ccccc2P(C)(C)=O)n1 [SIAIS164032, (2S,4R)-1-((S)-2-(3-(2-(3-(4-(1-(4-((5-chloro-4-((2-(dimethylphosphoryl)phenyl)amino)pyrimidin-2-yl)amino)-3-methoxyphenyl)piperidin-4-yl)piperazin-1-yl)-3-oxopropoxy)ethoxy)propanamido)-3,3-dimethylbutanoyl)-4-hydroxy-N-(4-(4-methylthiazol-5-yl)benzyl)pyrrolidine-2-carboxamide] | 54.5 ± 31.2 | 100 to 500 | 20 to 100 |  |  |
| COc1cc(N2CCN(C(=O)CCCCCCCCC(=O)N[C@H](C(=O)N3C[C@H](O)C[C@H]3C(=O)NCc3ccc(-c4scnc4C)cc3)C(C)(C)C)CC2)ccc1Nc1ncc(Cl)c(Nc2ccccc2P(C)(C)=O)n1 [SIAIS1197157, (2S,4R)-1-((S)-2-(10-(4-(4-((5-chloro-4-((2-(dimethylphosphoryl)phenyl)amino)pyrimidin-2-yl)amino)-3-methoxyphenyl)piperazin-1-yl)-10-oxodecanamido)-3,3-dimethylbutanoyl)-4-hydroxy-N-(4-(4-methylthiazol-5-yl)benzyl)pyrrolidine-2-carboxamide] | 3.1 ± 1.3 | 1 to 10 | 1 to 50 |  |  |
| COc1cc(N2CCC(N3CCN(C(=O)CCCCCCCCC(=O)N[C@H](C(=O)N4C[C@H](O)C[C@H]4C(=O)NCc4ccc(-c5scnc5C)cc4)C(C)(C)C)CC3)CC2)ccc1Nc1ncc(Cl)c(Nc2ccccc2P(C)(C)=O)n1 [SIAIS164126, (2S,4R)-1-((S)-2-(10-(4-(1-(4-((5-chloro-4-((2-(dimethylphosphoryl)phenyl)amino)pyrimidin-2-yl)amino)-3-methoxyphenyl)piperidin-4-yl)piperazin-1-yl)-10-oxodecanamido)-3,3-dimethylbutanoyl)-4-hydroxy-N-(4-(4-methylthiazol-5-yl)benzyl)pyrrolidine-2-carboxamide] | 8 ± 6.7 | 1 to 10 | 10 to 50 |  |  |
| COc1cc(N2CCC(N3CCN(C(=O)CCCNc4cccc5c4C(=O)N(C4CCC(=O)NC4=O)C5=O)CC3)CC2)ccc1Nc1ncc(Cl)c(Nc2ccccc2P(C)(C)=O)n1 (stereo not drawn) [SIAIS164020, 4-((4-(4-(1-(4-((5-chloro-4-((2-(dimethylphosphoryl)phenyl)amino)pyrimidin-2-yl)amino)-3-methoxyphenyl)piperidin-4-yl)piperazin-1-yl)-4-oxobutyl)amino)-2-(2,6-dioxopiperidin-3-yl)isoindoline-1,3-dione] | 2.9 ± 1.5 | 0.5 to 10 | 1 to 50 |  |  |
| COc1cc(N2CCC(N3CCN(C(=O)CCCC(=O)N[C@H](C(=O)N4C[C@H](O)C[C@H]4C(=O)NCc4ccc(-c5scnc5C)cc4)C(C)(C)C)CC3)CC2)ccc1Nc1ncc(Cl)c(Nc2ccccc2P(C)(C)=O)n1 [SIAIS164121, (2S,4R)-1-((S)-2-(5-(4-(1-(4-((5-chloro-4-((2-(dimethylphosphoryl)phenyl)amino)pyrimidin-2-yl)amino)-3-methoxyphenyl)piperidin-4-yl)piperazin-1-yl)-5-oxopentanamido)-3,3-dimethylbutanoyl)-4-hydroxy-N-(4-(4-methylthiazol-5-yl)benzyl)pyrrolidine-2-carboxamide] | 21.6 ± 12.5 | 1 to 10 | 50 to 100 |  |  |
| COc1cc(N2CCC(N3CCN(C(=O)CCCCCC(=O)N[C@H](C(=O)N4C[C@H](O)C[C@H]4C(=O)NCc4ccc(-c5scnc5C)cc4)C(C)(C)C)CC3)CC2)ccc1Nc1ncc(Cl)c(Nc2ccccc2P(C)(C)=O)n1 [SIAIS164123, (2S,4R)-1-((S)-2-(7-(4-(1-(4-((5-chloro-4-((2-(dimethylphosphoryl)phenyl)amino)pyrimidin-2-yl)amino)-3-methoxyphenyl)piperidin-4-yl)piperazin-1-yl)-7-oxoheptanamido)-3,3-dimethylbutanoyl)-4-hydroxy-N-(4-(4-methylthiazol-5-yl)benzyl)pyrrolidine-2-carboxamide] | 11.4 ± 8.1 | 1 to 50 | 10 to 50 |  |  |
| COc1cc(N2CCN(C(=O)CCCCCCC(=O)N[C@H](C(=O)N3C[C@H](O)C[C@H]3C(=O)NCc3ccc(-c4scnc4C)cc3)C(C)(C)C)CC2)ccc1Nc1ncc(Cl)c(Nc2ccccc2P(C)(C)=O)n1 [SIAIS1197153, (2S,4R)-1-((S)-2-(8-(4-(4-((5-chloro-4-((2-(dimethylphosphoryl)phenyl)amino)pyrimidin-2-yl)amino)-3-methoxyphenyl)piperazin-1-yl)-8-oxooctanamido)-3,3-dimethylbutanoyl)-4-hydroxy-N-(4-(4-methylthiazol-5-yl)benzyl)pyrrolidine-2-carboxamide] | 4.6 ± 1.9 | 1 to 50 | 1 to 50 |  |  |
| COc1cc(N2CCN(C(=O)CCOCCNc3cccc4c3C(=O)N(C3CCC(=O)NC3=O)C4=O)CC2)ccc1Nc1ncc(Cl)c(Nc2ccccc2P(C)(C)=O)n1 (stereo not drawn) [SIAIS1197065, 4-((2-(3-(4-(4-((5-chloro-4-((2-(dimethylphosphoryl)phenyl)amino)pyrimidin-2-yl)amino)-3-methoxyphenyl)piperazin-1-yl)-3-oxopropoxy)ethyl)amino)-2-(2,6-dioxopiperidin-3-yl)isoindoline-1,3-dione] | 20.7 ± 14.9 |  | 100 to 500 |  |  |
| COc1cc(N2CCN(C(=O)CCCC(=O)N[C@H](C(=O)N3C[C@H](O)C[C@H]3C(=O)NCc3ccc(-c4scnc4C)cc3)C(C)(C)C)CC2)ccc1Nc1ncc(Cl)c(Nc2ccccc2P(C)(C)=O)n1 [SIAIS1197147, (2S,4R)-1-((S)-2-(5-(4-(4-((5-chloro-4-((2-(dimethylphosphoryl)phenyl)amino)pyrimidin-2-yl)amino)-3-methoxyphenyl)piperazin-1-yl)-5-oxopentanamido)-3,3-dimethylbutanoyl)-4-hydroxy-N-(4-(4-methylthiazol-5-yl)benzyl)pyrrolidine-2-carboxamide] | 14.2 ± 8.2 |  | 20 to 100 |  |  |
| COc1cc(N2CCC(NC(=O)CCOCCOCCNc3cccc4c3C(=O)N(C3CCC(=O)NC3=O)C4=O)CC2)ccc1Nc1ncc(Cl)c(Nc2ccccc2P(C)(C)=O)n1 (stereo not drawn) [SIAIS151114, N-(1-(4-((5-chloro-4-((2-(dimethylphosphoryl)phenyl)amino)pyrimidin-2-yl)amino)-3-methoxyphenyl)piperidin-4-yl)-3-(2-(2-((2-(2,6-dioxopiperidin-3-yl)-1,3-dioxoisoindolin-4-yl)amino)ethoxy)ethoxy)propenamide] | 10.9 ± 7.5 |  | 100 to 500 |  |  |
